Results on 16 molecules are retold here after patent publication US8969325B2, “TRPV1 antagonists” (AbbVie Inc., priority 2011, dated 2015).

The target of experiment [1] is T1, human TRPV1 (Homo sapiens (Human), UniProt Q8NER1). The experiment can be described thus: Capsaicin Activation Assay (intracellular Ca2+, FLIPR). The class given is cell-based. As to conditions: recombinant HEK293 cells expressing hTRPV1, 50 nM capsaicin. How it is done: (Logan, Utah). Dulbecco's phosphate-buffered saline (D-PBS) (with 1 mg/mL glucose and 3.6 mg/l Na pyruvate, without phenol red), L-glutamine, hygromycin B, and Lipofectamine® were obtained from Life Technologies (Grand Island, N.Y.). G418 sulfate was obtained from Calbiochem-Novabiochem Corp. (San Diego, Calif.). […] (St. Louis, Mo.). […] The cDNA for human TRPV1 (hTRPV1) was isolated by reverse transcriptase-polymerase chain reaction (RT-PCR) from human small intestine poly A+ RNA supplied by Clontech (Palo Alto, Calif.) using primers designed surrounding the initiation and termination codons identical to the published sequences (Hayes et al. […] The resulting cDNA PCR products were subcloned into pCIneo mammalian expression vector (Promega) and fully sequenced using fluorescent dye-terminator reagents (Prism, PerkinElmer Applied Biosystems Division) and a PerkinElmer Applied Biosystems Model 373 DNA sequencer or Model 310 genetic analyzer. Expression plasmids encoding the hTRPV1 cDNA were transfected into HEK293 cells using Lipofectamine®. Forty-eight hours after transfection, the neomycin-resistant cells were selected with growth medium containing 800 μg/mL Geneticin (Life Technologies, formerly Gibco BRL). Surviving individual colonies were isolated and screened for TRPV1 activity. […] Compound stocks, 10 mM, were prepared in DMSO, and diluted serially across a 384-well plate using a Bravo BenchCel workstation (Agilent Technologies, Santa Clara, Calif.). […] On the day prior to the experiment, the recombinant HEK293 cells expressing human TRPV1 (hTRPV1) were removed from tissue culture flasks and plated in growth medium into black-walled clear-bottom 384-well Biocoat™ poly-D-lysine assay plates (BD Biosciences, Bedford, Mass.) using a Multidrop® dispenser (ThermoScientific, Waltham, Mass.). […] Molecular Devices, Sunnyvale, Calif.) was added to each well using the Multidrop® dispenser. […] Fluorescence readings were made at 1 to 5 second intervals over the course of the experimental run.
T1 sequence (Q8NER1 whole entry): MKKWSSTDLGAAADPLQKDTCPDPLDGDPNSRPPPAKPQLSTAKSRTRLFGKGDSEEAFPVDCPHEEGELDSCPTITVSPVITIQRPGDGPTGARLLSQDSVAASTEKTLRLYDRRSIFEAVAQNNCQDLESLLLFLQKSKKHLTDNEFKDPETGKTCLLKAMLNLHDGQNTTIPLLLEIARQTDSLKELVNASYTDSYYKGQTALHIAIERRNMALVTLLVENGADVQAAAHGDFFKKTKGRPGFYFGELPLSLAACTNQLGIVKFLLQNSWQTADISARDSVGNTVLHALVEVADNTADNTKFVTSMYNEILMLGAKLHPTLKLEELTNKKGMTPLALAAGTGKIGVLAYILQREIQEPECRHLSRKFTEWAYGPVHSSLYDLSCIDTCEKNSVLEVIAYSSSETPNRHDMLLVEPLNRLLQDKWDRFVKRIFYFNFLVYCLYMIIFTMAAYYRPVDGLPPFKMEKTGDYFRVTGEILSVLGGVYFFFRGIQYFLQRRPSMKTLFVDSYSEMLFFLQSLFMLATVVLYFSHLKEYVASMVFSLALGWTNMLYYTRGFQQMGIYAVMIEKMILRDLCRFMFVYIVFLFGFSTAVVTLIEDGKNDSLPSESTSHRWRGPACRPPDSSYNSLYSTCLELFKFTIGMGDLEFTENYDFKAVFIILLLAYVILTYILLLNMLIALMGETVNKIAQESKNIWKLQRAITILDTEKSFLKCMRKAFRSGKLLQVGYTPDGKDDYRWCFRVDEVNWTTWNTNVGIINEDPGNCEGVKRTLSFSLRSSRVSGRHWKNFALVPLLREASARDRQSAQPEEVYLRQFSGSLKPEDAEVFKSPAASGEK

The target in experiment [2] is T1, human TRPV1. The experiment can be described thus: Acid Activation Assay (pH 5.0, intracellular Ca2+, FLIPR). As to conditions: percentage of the maximal pH 5.0-induced response remaining; recombinant HEK293 hTRPV1 cells; maximum concentration tested 37.5 μM. The class given is cell-based. The protocol: Dulbecco's modified Eagle's medium (DMEM) with 4.5 m g/mL D-glucose, fetal bovine serum, L-glutamine, and 2-morpholinoethanesulfonic acid (MES) were purchased from Sigma-Aldrich Co. (St. Louis, Mo.). Dulbecco's phosphate-buffered saline (DPBS) with Ca^2+, Mg^2+, and 1 mg/mL D-glucose (pH 7.4), Geneticin®, 0.25% trypsin-1 mM EDTA, and penicillin-streptomycin were purchased from Invitrogen Corp. (Carlsbad, Calif.). The FLIPR® Calcium 4 assay kit was purchased from Molecular Devices (Sunnyvale, Calif.).
The cDNA for human TRPV1 (hTRPV1) was isolated by reverse transcriptase-polymerase chain reaction (RT-PCR) from human small intestine poly A+ RNA supplied by Clontech (Palo Alto, Calif.) using primers designed surrounding the initiation and termination codons identical to the published sequences (Hayes et al. Pain 2000, 88, 205-215). The resulting cDNA PCR products were subcloned into pCIneo mammalian expression vector (Promega) and fully sequenced using fluorescent dye-terminator reagents (Prism, PerkinElmer Applied Biosystems Division) and a PerkinElmer Applied Biosystems Model 373 DNA sequencer or Model 310 genetic analyzer. Expression plasmids encoding the hTRPV1 cDNA were transfected into HEK293 cells using Lipofectamine®. Forty-eight hours after transfection, the neomycin-resistant cells were selected with growth medium containing 800 μg/mL Geneticin (Life Technologies, formerly Gibco BRL). Surviving individual colonies were isolated and screened for TRPV1 activity. Cells expressing recombinant TRPV1 were maintained at 37° C. in DMEM containing 4 mM L-glutamine, 300 μg/mL G418 (Calbiochem) and 10% fetal bovine serum under a humidified 5% CO2 atmosphere.
The functional activity of compounds at the TRPV1 receptor was determined by measurement of intracellular Ca^2+ levels ([Ca^2+]i) using the Fluorescence Imaging Plate Reader (FLIPR)TETRA®. All compounds were tested over a 12-point one-half-log concentration range with 37.5 μM being the maximum concentration tested. Compound stocks, 10 mM, were prepared in DMSO, and diluted serially across a 384-well plate using a Bravo BenchCel workstation (Agilent Technologies, Santa Clara, Calif.). On the day prior to the experiment, the recombinant HEK293 cells expressing human TRPV1 (hTRPV1) were removed from tissue culture flasks and plated in growth medium into black-walled clear-bottom 384-well Biocoat™ poly-D-lysine assay plates (BD Biosciences, Bedford, Mass.) using a Multidrop® dispenser (ThermoScientific, Waltham, Mass.). On the day of the experiment growth medium was removed, and the no-wash FLIPR® Calcium-4 dye (λEX=470-495 nm, λEM=515-575 nm) was added to each well using the Multidrop® dispenser. The plated cells were incubated for 90-120 min in the dark at 25° C. The test compounds dissolved in DMSO were then added to the plates using an Agilent Bravo workstation (Agilent Technologies Inc., Santa Clara, Calif.). Three minutes later, a pH 5.0 solution was added to each well. Reagents were delivered at a rate of 40 μL/sec, and the final assay volume was 80 μL. Acidic pH solutions were prepared by titration of DPBS/MES with 1 N HCl. The intensity of the fluorescence was captured and digitally transferred to an interfaced PC. The maximum peak measured for the concentration range tested was used to calculate the corresponding peak increase in fluorescence over baseline (relative fluorescence units) which was expressed as the percentage (max % remain) of the maximal pH 5.0-induced response.
Table 1 reports the percentage (max % remain) of the maximal pH 5.0-induced response measured for the compounds tested in the recombinant HEK293 cell assay. Most of the compounds tested inhibited calcium flux only partially following TRPV1 activation by the pH 5.0 solution.

Molecules are shown by their SMILES.

Take `O=C1COc2ccc(NC(=O)N[C@@H]3CC(CF)(CF)Oc4cc(Cl)ccc43)cc2N1` [Example 29, 1-[(4R)-7-chloro-2,2-bis(fluoromethyl)-3,4-dihydro-2H-chromen-4-yl]-3-(3-oxo-3,4-dihydro-2H-1,4-benzoxazin-6-yl)urea]: the 50% inhibitory concentration (IC50) in experiment [1] worked out at 100 nM. Also, the “human TRPV1 H^+ (max % remain)” value in experiment [2] turned out to be 93%.

Regarding `Cn1c(=O)ccc2c(NC(=O)N[C@@H]3C[C@](C)(CF)Oc4cc(Cl)ccc43)cccc21` [Example 40, 1-[(2R,4R)-7-chloro-2-(fluoromethyl)-2-methyl-3,4-dihydro-2H-chromen-4-yl]-3-(1-methyl-2-oxo-1,2-dihydroquinolin-5-yl)urea], the IC50 in experiment [1] was determined as 22 nM. Also, in experiment [2], the “human TRPV1 H^+ (max % remain)” value is 38%.

As to `Cn1c(=O)ccc2c(NC(=O)N[C@@H]3C[C@@](C)(CF)Oc4cc(Cl)ccc43)cccc21` [Example 41, 1-[(2S,4R)-7-chloro-2-(fluoromethyl)-2-methyl-3,4-dihydro-2H-chromen-4-yl]-3-(1-methyl-2-oxo-1,2-dihydroquinolin-5-yl)urea], the IC50 in experiment [1] was 12 nM. The “human TRPV1 H^+ (max % remain)” value in experiment [2] is 74%.

Consider `CC1(C)C[C@@H](NC(=O)Nc2ccc3c(c2)NC(=O)N(CCO)C3)c2cccc(F)c2O1` [Example 42, 1-[(4R)-8-fluoro-2,2-dimethyl-3,4-dihydro-2H-chromen-4-yl]-3-[3-(2-hydroxyethyl)-2-oxo-1,2,3,4-tetrahydroquinazolin-7-yl]urea], for which the IC50 in experiment [1] stood at 510 nM. Moreover, the “human TRPV1 H^+ (max % remain)” value in experiment [2] is 8%.

With `CC1(C)C[C@@H](NC(=O)Nc2ccc3c(c2)NC(=O)N(CCO)C3)c2ccc(F)cc2O1` [Example 43, 1-[(4R)-7-fluoro-2,2-dimethyl-3,4-dihydro-2H-chromen-4-yl]-3-[3-(2-hydroxyethyl)-2-oxo-1,2,3,4-tetrahydroquinazolin-7-yl]urea], the 50% inhibitory concentration (IC50) in experiment [1] is 94 nM. Further, the “human TRPV1 H^+ (max % remain)” value in experiment [2] was 8%.

With `CCC1(CC)C[C@@H](NC(=O)Nc2ccc3c(c2)NC(=O)N(CCO)C3)c2cccc(F)c2O1` [Example 44, 1-[(4R)-2,2-diethyl-8-fluoro-3,4-dihydro-2H-chromen-4-yl]-3-[3-(2-hydroxyethyl)-2-oxo-1,2,3,4-tetrahydroquinazolin-7-yl]urea], in experiment [1], the IC50 was determined as 65 nM. In addition, the “human TRPV1 H^+ (max % remain)” value in experiment [2] is listed as 3%.

For the molecule `CCC1(CC)C[C@@H](NC(=O)Nc2ccc3c(c2)NC(=O)N(CCO)C3)c2ccccc2O1` [Example 45, 1-[(4R)-2,2-diethyl-3,4-dihydro-2H-chromen-4-yl]-3-[3-(2-hydroxyethyl)-2-oxo-1,2,3,4-tetrahydroquinazolin-7-yl]urea], the IC50 in experiment [1] is 43 nM. In experiment [2], the “human TRPV1 H^+ (max % remain)” value is given as 4%.

`CCC1(CC)C[C@@H](NC(=O)Nc2ccc3c(c2)NC(=O)N(CCO)C3)c2ccc(C(F)(F)F)cc2O1` [Example 46, 1-[(4R)-2,2-diethyl-7-(trifluoromethyl)-3,4-dihydro-2H-chromen-4-yl]-3-[3-(2-hydroxyethyl)-2-oxo-1,2,3,4-tetrahydroquinazolin-7-yl]urea]: the IC50 in experiment [1] came out at 367 nM. The “human TRPV1 H^+ (max % remain)” value in experiment [2] was found to be 0%.

In the case of `CCC1(CC)C[C@@H](NC(=O)Nc2ccc3c(c2)NC(=O)N(CCO)C3)c2ccc(Cl)cc2O1` [Example 47, 1-[(4R)-7-chloro-2,2-diethyl-3,4-dihydro-2H-chromen-4-yl]-3-[3-(2-hydroxyethyl)-2-oxo-1,2,3,4-tetrahydroquinazolin-7-yl]urea], the IC50 in experiment [1] is 169 nM. Besides, the “human TRPV1 H^+ (max % remain)” value in experiment [2] came out at 0%.

For `CC1(C)C[C@@H](NC(=O)Nc2ccc3c(c2)NC(=O)N(CCO)C3)c2ccc(C(F)(F)F)cc2O1` [Example 48, 1-[(4R)-2,2-dimethyl-7-(trifluoromethyl)-3,4-dihydro-2H-chromen-4-yl]-3-[3-(2-hydroxyethyl)-2-oxo-1,2,3,4-tetrahydroquinazolin-7-yl]urea], the IC50 in experiment [1] is 21 nM. In addition, the “human TRPV1 H^+ (max % remain)” value in experiment [2] amounted to 1%.

On to `O=C(Nc1ccc2c(c1)NC(=O)N(CCO)C2)N[C@@H]1CC(CF)(CF)Oc2ccc(F)cc21` [Example 49, 1-[(4R)-6-fluoro-2,2-bis(fluoromethyl)-3,4-dihydro-2H-chromen-4-yl]-3-[3-(2-hydroxyethyl)-2-oxo-1,2,3,4-tetrahydroquinazolin-7-yl]urea], for which the IC50 in experiment [1] was determined as 6100 nM. In addition, the “human TRPV1 H^+ (max % remain)” value in experiment [2] was 8%.

As for `CCC1(CC)C[C@@H](NC(=O)Nc2ccc3c(c2)NC(=O)N(CCO)C3)c2cc(F)ccc2O1` [Example 50, 1-[(4R)-2,2-diethyl-6-fluoro-3,4-dihydro-2H-chromen-4-yl]-3-[3-(2-hydroxyethyl)-2-oxo-1,2,3,4-tetrahydroquinazolin-7-yl]urea], the IC50 in experiment [1] is 45 nM. Further, in experiment [2], the “human TRPV1 H^+ (max % remain)” value is 0%.

On to `CC1(C)C[C@@H](NC(=O)Nc2ccc3c(c2)NC(=O)N(CCO)C3)c2cc(F)ccc2O1` [Example 51, 1-[(4R)-6-fluoro-2,2-dimethyl-3,4-dihydro-2H-chromen-4-yl]-3-[3-(2-hydroxyethyl)-2-oxo-1,2,3,4-tetrahydroquinazolin-7-yl]urea], for which the IC50 in experiment [1] came to 330 nM. The “human TRPV1 H^+ (max % remain)” value in experiment [2] is given as 10%.

On to `O=C(Nc1ccc2c(c1)NC(=O)N(CCO)C2)N[C@@H]1CCOc2ccc(F)cc21` [Example 52, 1-[(4R)-6-fluoro-3,4-dihydro-2H-chromen-4-yl]-3-[3-(2-hydroxyethyl)-2-oxo-1,2,3,4-tetrahydroquinazolin-7-yl]urea], for which the IC50 in experiment [1] was 950 nM. The “human TRPV1 H^+ (max % remain)” value in experiment [2] amounted to 32%.

`O=C(Nc1ccc2c(c1)NC(=O)N(CCO)C2)N[C@@H]1CCOc2c1cccc2C(F)(F)F` [Example 53, 1-[3-(2-hydroxyethyl)-2-oxo-1,2,3,4-tetrahydroquinazolin-7-yl]-3-[(4R)-8-(trifluoromethyl)-3,4-dihydro-2H-chromen-4-yl]urea]: in experiment [1], the IC50 came to 1800 nM. In addition, the “human TRPV1 H^+ (max % remain)” value in experiment [2] came out at 1%.

With `O=C(Nc1ccc2c(c1)NC(=O)N(CCO)C2)N[C@@H]1CCOc2cc(C(F)(F)F)ccc21` [Example 54, 1-[3-(2-hydroxyethyl)-2-oxo-1,2,3,4-tetrahydroquinazolin-7-yl]-3-[(4R)-7-(trifluoromethyl)-3,4-dihydro-2H-chromen-4-yl]urea], the IC50 in experiment [1] was determined as 260 nM. For the same molecule, the “human TRPV1 H^+ (max % remain)” value in experiment [2] is 1%.
